target: T1, Endothelin-converting enzyme 1 (Homo sapiens, UniProt P42892); assay: Inhibitory concentration against endothelin converting enzyme 1 using bradykinin-derived substrate
T1 sequence (P42892 whole entry): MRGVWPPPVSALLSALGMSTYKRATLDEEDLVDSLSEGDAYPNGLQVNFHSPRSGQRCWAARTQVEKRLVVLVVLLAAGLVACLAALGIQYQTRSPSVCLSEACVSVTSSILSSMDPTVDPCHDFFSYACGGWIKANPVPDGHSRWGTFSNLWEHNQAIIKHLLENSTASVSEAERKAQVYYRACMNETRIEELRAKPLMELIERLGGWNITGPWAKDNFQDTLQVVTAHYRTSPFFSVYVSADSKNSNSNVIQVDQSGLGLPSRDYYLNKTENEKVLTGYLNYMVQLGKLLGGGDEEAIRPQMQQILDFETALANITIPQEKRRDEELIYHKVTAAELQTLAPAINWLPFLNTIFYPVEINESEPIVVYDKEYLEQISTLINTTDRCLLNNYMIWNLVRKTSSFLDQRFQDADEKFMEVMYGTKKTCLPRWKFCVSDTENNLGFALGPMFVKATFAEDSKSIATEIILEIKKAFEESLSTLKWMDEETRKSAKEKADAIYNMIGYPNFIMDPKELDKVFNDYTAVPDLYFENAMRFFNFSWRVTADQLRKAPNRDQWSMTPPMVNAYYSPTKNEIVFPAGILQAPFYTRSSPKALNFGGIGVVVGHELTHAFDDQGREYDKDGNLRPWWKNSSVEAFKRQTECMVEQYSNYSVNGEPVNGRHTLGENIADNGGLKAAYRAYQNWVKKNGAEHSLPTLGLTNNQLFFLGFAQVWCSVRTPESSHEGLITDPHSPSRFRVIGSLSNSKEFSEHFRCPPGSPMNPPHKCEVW

| IC50 [nM] | Structure (SMILES) |
| --- | --- |
| > 10000 | CC(C)(C)CC(=O)Nc1ccc2c(c1)cc(CNc1ccccc1)n2Cc1ccccc1F |
| > 10000 | CC(C)(C)CC(=O)Nc1ccc2c(c1)cc(-c1nc(-c3ccccc3)no1)n2Cc1ccccc1F |
| > 10000 | CC(C)(C)CC(=O)Nc1ccc2c(c1)cc(C(=O)Nc1ccn[nH]1)n2Cc1ccccc1F |

| Structure (SMILES) | IC50 [nM] |
| --- | --- |
| CC(C)(C)CC(=O)Nc1ccc2c(c1)c(C(=O)Nc1ccccc1)cn2Cc1ccccc1F | > 10000 |

target: T1, Endothelin-converting enzyme 1; assay: Inhibitory concentration against endothelin converting enzyme 1 using big-ET-1 substrate in ELISA

| IC50 [nM] | Structure (SMILES) |
| --- | --- |
| 150 | CNS(=O)(=O)c1ccc(NC(=O)c2cccc(NC(=O)c3cc4cc(NC(=O)CC(C)(C)C)ccc4n3Cc3ccccc3F)c2)cc1 |
| 120 | CC(C)(C)CC(=O)Nc1ccc2c(c1)cc(C(=O)Nc1cccc(C(=O)Nc3ccc(S(C)(=O)=O)cc3)c1)n2Cc1ccccc1F |
| 66 | C[S+]([O-])c1ccc(NC(=O)c2cccc(NC(=O)c3cc4cc(NC(=O)CC(C)(C)C)ccc4n3Cc3ccccc3F)c2)cc1 (stereo not drawn) |
| 39 | CC(C)(C)CC(=O)Nc1ccc2c(c1)cc(C(=O)Nc1cccc(C(=O)Nc3ccc(S(N)(=O)=O)cc3)c1)n2Cc1ccccc1F |

— ChEMBL document CHEMBL1141043, “Novel, selective indole-based ECE inhibitors: lead optimization via solid-phase and classical synthesis” (Bioorg Med Chem Lett, 2005)
